Data reported in patent US9199975B2, “Biaryl imidazole derivatives for regulating CYP17” (Asana Biosciences, LLC, priority 2011, dated 2015).

Assays:
rat CYP17 = target: T1, rat CYP17 (Rattus norvegicus, UniProt P11715); assay: CYP17 inhibition assay in rat testicular microsomes; format: biochemical; conditions: 3H3-17α-hydroxypregnenolone substrate, 60 minutes at 37° C.
T1 construct: Rat testis tissue was collected and disrupted with 30 strokes of a glass homogenizer; from tissue; host or cells: rat testis (microsomal fraction)
T1 sequence (P11715 1-507): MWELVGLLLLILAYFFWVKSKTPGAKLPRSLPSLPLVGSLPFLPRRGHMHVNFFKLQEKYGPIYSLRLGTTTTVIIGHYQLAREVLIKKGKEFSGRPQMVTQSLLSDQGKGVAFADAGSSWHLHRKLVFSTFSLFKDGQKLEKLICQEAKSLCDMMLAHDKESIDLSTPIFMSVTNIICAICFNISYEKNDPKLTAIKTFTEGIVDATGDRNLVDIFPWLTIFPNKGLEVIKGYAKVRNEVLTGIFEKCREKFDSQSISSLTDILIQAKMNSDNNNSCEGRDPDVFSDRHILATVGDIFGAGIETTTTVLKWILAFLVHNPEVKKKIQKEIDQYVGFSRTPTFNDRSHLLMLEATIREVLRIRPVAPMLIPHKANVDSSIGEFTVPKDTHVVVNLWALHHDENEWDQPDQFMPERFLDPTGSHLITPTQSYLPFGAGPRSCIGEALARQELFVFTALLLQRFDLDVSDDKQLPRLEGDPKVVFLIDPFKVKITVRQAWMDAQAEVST
Experimental: (§1) CYP17 Inhibition Assay in Rat Testicular Microsomes (Rat CYP17) or Yeast Microsome Overexpressing Human CYP17
(§2) A. Materials • 1. NADPH (Sigma): A working stock was prepared by adding 25 μL of 6.5 mM NADPH in each tube. The final concentration of NADPH used in the assay was 325 μM. • 2. Potassium Phosphate Buffer: One molar (1M) solutions of K2HPO4 and KH2PO4 were prepared. Eight mL of the 1 M KH2PO4 and 1.98 mL of the 1 M K2HPO4 were combined and the pH was adjusted to 7.4. • 3. ^3H3-17α-hydroxypregnenolone (American Radiolabeled Chemicals, Inc., stock 1 μCi/μL): A 1:1 dilution of ^3H3-17α-hydroxypregnenolone in ethanol was prepared by combining 100 μL ^3H3-17α-hydroxypregnenolone+100 μL ethanol for one complete 96 well plate. For the reaction, 2 μL of the diluted ^3H3-17α-hydroxypregnenolone was added in each tube, i.e., 1 μCi/reaction. • 4. Microsome Isolation Buffer: The microsome isolation buffer was prepared by combining 250 mM Sucrose, 5 mM EDTA, 10 mM Tris HCl, 4 mM DTT, and adjusting to pH 7.4. • 5. TEG Buffer: The TEG buffer was prepared by combining 50 mM Tris HCl, 1 mM EDTA, and 20% Glycerol. • 6. Rat Testicular Microsomes: Rat testis tissue was collected and disrupted with 30 strokes of a glass homogenizer on ice with 250 μL of microsome isolation buffer, followed by centrifugation at 10,000 g for 10 minutes at 4° C. The supernatant was collected and centrifuged at 100,000 g for 45 minutes at 4° C. The pellet was dissolved in TEG Buffer and the protein was quantified. The homogenized microsome samples were then frozen at −80° C. • 7. Yeast Microsomes which overexpress the human CYP17 enzyme were obtained from Premas Biotech, India.
(§3) Potassium phosphate buffer (470 μL) was prepared as described above and was added to each well of a deep well plate. The test compound was diluted using a TECAN liquid handler and 5 μL of diluted compound was transferred to each well (96 deep well/1 mL). A solution (25 μL) of 6.5 mM NADPH was added (final concentration of 325 µM in the assay). ^3H3-17α-hydroxypregnenolone (2 μL of the working stock) was added to each tube. The plates were then pre-incubated for 15 minutes at 37° C. Following the pre-incubation, either 5 μL rat testicular microsomes (150-160 μg) or 5 μL of yeast microsomes expressing human CYP17 (1.7 pmol), was added. Incubation was at 37° C. for 60 minutes in the presence of oxygen. The plates were then placed in ice and chloroform (500 μL) was added, mixed well and incubated at 4° C. for 20 minutes. The plates were then centrifuged at 1000 rpm for 15 minutes at 4° C.
(§4) A portion (300 μL) of the aqueous solution was collected and mixed with a 5% aqueous suspension of activated charcoal (300 μL). The plates were then incubated at 4° C. for 30 minutes, after which the plates were centrifuged at 1000 rpm for 15 minutes at 4° C. From this, 125 μL of the aqueous solution was collected and plated into a 96 well plate. Microscint™ 40 [125 μL, Perkin-Elmer; containing a mixture of a polymer based on alkylphenolethoxylate (20-40%), diethanolamine-phosphoric acid ester ammonium salt (10-20%), sodium dioctyl sulphosuccinate (2.5-10%), triethyl phosphate (2.5-10%), 3,6-dimethyl-4-octyne-3,6-diol (≦2.5%), a polymer based on nonylphenolethoxylate (≦2.5%), diisopropyl naphthalene isomers (40-60%), 2,5-diphenyloxazole (≦2.5%), and 9,10-dimethylanthracene] was added and mixed well. After 30 minutes of incubation, the samples were analyzed with a MicroBeta® Trilux microplate liquid scintillation counter and luminometer (Perkin-Elmer).

human CYP17 = target: T2, human CYP17 (Homo sapiens, UniProt P05093); assay: CYP17 inhibition assay in yeast microsomes overexpressing human CYP17; format: biochemical; conditions: yeast microsomes expressing human CYP17, 3H3-17α-hydroxypregnenolone substrate, 60 minutes at 37° C.
T2 sequence (P05093 1-508): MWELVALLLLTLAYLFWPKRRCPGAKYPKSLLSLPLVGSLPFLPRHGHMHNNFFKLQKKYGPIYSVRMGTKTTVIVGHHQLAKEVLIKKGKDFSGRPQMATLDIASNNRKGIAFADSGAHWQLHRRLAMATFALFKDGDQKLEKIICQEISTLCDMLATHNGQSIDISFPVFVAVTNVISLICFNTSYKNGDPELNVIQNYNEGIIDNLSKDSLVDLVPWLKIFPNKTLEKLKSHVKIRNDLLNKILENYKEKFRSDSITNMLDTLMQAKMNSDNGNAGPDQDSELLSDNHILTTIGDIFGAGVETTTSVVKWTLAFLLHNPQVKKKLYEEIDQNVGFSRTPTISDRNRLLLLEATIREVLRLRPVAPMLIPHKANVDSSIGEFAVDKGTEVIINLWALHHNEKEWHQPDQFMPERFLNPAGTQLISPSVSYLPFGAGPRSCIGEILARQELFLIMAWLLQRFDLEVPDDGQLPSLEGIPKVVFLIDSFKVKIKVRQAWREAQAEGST
Experimental: as §1, §2, §3, §4

SMILES	IC50 (rat CYP17) [µM]	IC50 (human CYP17) [µM]
CCC(c1ccc(-c2ccccc2O)cn1)n1ccnc1 (stereo not shown) [Example 37, 2-[6-(1-Imidazol-1-yl-propyl)-pyridin-3-yl]-phenol]	< 0.05	0.05 to 0.2
CCC(c1ccc(-c2cccc(OC)c2)cn1)n1ccnc1 (stereo not shown) [Example 7, 2-(1-(1H-imidazol-1-yl)propyl)-5-(3-methoxyphenyl)pyridine]	< 0.05	< 0.05
CC(c1ccc(-c2ccc(=O)n(C)c2)s1)n1ccnc1 (stereo not shown) [Example 20, 5-(5-(1-(1H-imidazol-1-yl)ethyl)thiophen-2-yl)-1-methylpyridin-2(1H)-one]	< 0.05	0.201 to 10
CCC(c1cnc(-c2ccc(OC)cc2)s1)n1ccnc1 (stereo not shown) [Example 35, 5-(1-Imidazol-1-yl-propyl)-2-(4-methoxy-phenyl)-thiazole]	< 0.05	0.201 to 10

The next lines start with the values.

IC50 (rat CYP17) [µM]	IC50 (human CYP17) [µM]	SMILES
0.05 to 0.2	0.201 to 10	CCC(c1cnc(-c2ccc(O)cc2)s1)n1ccnc1 (stereo not shown) [Example 60, 4-[5-(1-Imidazol-1-yl-propyl)-thiazol-2-yl]-phenol]
< 0.05	0.201 to 10	CCC(c1ccc(-c2ccccc2OC)cn1)n1ccnc1 (stereo not shown) [Example 56, 2-(1-Imidazol-1-yl-propyl)-5-(2-methoxy-phenyl)-pyridine]
< 0.05	0.05 to 0.2	CC(c1ccc(-c2ccc(O)cc2)s1)n1ccnc1 (stereo not shown) [Example 49, 4-[5-(1-Imidazol-1-yl-ethyl)-thiophen-2-yl]-phenol]
< 0.05	< 0.05	CCC(c1ccc(-c2ccc(O)cc2)cn1)n1ccnc1 (stereo not shown) [Example 50, 4-[6-(1-Imidazol-1-yl-propyl)-pyridin-3-yl]-phenol]
